Experimental data taken from patent publication US9884818B2, “Sulphamoylpyrrolamide derivatives and the use thereof as medicaments for the treatment of hepatitis B” (Janssen Sciences Ireland UC, priority 2013, dated 2018).

Key:
[1] = Cytotoxicity in HepG2 cells, Resazurin viability assay; details: human, HepG2 cells, HepG2 4 days CC50 (μM), incubated for 4 days, Resazurin assay
HBV [2] = assay: Anti-HBV activity, HepG2.117 inducibly HBV producing cell line (Tet-off), intracellular HBV DNA by realtime PCR; type: cell-based; details: Hepatitis B virus, HepG2.117, 72 h, HepG2.117 cells, 3 days of treatment, intracellular HBV DNA; read-out: HepG2 117 EC50
HBV [3] = assay: Anti-HBV activity, HepG2.2.15 stable transfected cell line, HBV DNA from secreted virions by realtime PCR; type: cell-based; details: Hepatitis B virus, HepG2.2.15, 144 h, HepG2.2.15 cells, 6 days of treatment, HBV DNA from secreted virions; read-out: HepG2 2.15 EC50

SMILES	CC50 at 4 days [1] [µM]	EC50 (HBV [2]) [nM]	EC50 (HBV [3]) [nM]
Cn1cc(S(=O)(=O)NCC(F)F)cc1C(=O)Nc1ccc(F)c(C#N)c1 [Compound 126, N-(3-Cyano-4-fluorophenyl)-4-[(2,2-difluoroethyl)sulfamoyl]-1-methyl-1H-pyrrole-2-carboxamide]	> 25	230	590
Cc1c(S(=O)(=O)N[C@H](C)C(F)(F)F)cc(C(=O)Nc2ccc(F)c(C(F)(F)F)c2)n1C [Compound 142, N-[4-Fluoro-3-(trifluoromethyl)phenyl]-1,5-dimethyl-4-{[(1R)-2,2,2-trifluoro-1-methylethyl]sulfamoyl}-1H-pyrrole-2-carboxamide]	> 25	420	150
Cn1cc(S(=O)(=O)N[C@H]2CCOC2)cc1C(=O)Nc1ccc(F)c(C(F)(F)F)c1 [Compound 42, N-[4-fluoro-3-(trifluoromethyl)phenyl]-1-methyl-4-[[(3S)-tetrahydrofuran-3-yl]sulfamoyl]pyrrole-2-carboxamide]	> 25	720	540
C[C@H](NS(=O)(=O)c1cc(C(=O)Nc2cc(F)c(F)c(Br)c2)n(C)c1)C(F)(F)F [Compound 100, N-(3-Bromo-4,5-difluorophenyl)-1-methyl-4-{[(1S)-2,2,2-trifluoro-1-methylethyl]sulfamoyl}-1H-pyrrole-2-carboxamide]	12.2	50	60
Cc1c(S(=O)(=O)N[C@H](C)C(F)(F)F)cc(C(=O)Nc2ccc(F)c(Cl)c2F)n1C [Compound 143, N-(3-Chloro-2,4-difluorophenyl)-1,5-dimethyl-4-{[(1R)-2,2,2-trifluoro-1-methylethyl]sulfamoyl}-1H-pyrrole-2-carboxamide]	> 25	150	50
CC(C)NS(=O)(=O)c1cc(C(=O)Nc2ccc(F)c(C#N)c2)n(C)c1 [Compound 175, N-(3-Cyano-4-fluorophenyl)-1-methyl-4-[(1-methylethyl)sulfamoyl]-1H-pyrrole-2-carboxamide]	> 25	130	70
Cc1cc(NC(=O)c2cc(S(=O)(=O)NC3(C)COC3)cn2C)ccc1F [Compound 5, N-(4-fluoro-3-methyl-phenyl)-1-methyl-4-[(3-methyloxetan-3-yl)-sulfamoyl]pyrrole-2-carboxamide]	> 25	20	30
Cc1cc(NC(=O)c2cc(S(=O)(=O)NC(C)C)c[nH]2)ccc1F [Compound 1, N-(4-fluoro-3-methyl-phenyl)-4-(isopropylsulfamoyl)-1H-pyrrole-2-carboxamide]	> 25	3100	420
CC(C)NS(=O)(=O)c1cc(C(=O)Nc2cc(F)c(F)c(C#N)c2)n(C)c1 [Compound 52, N-(3-cyano-4,5-difluoro-phenyl)-4-(isopropylsulfamoyl)-1-methyl-pyrrole-2-carboxamide]	> 25	330	260
Cn1cc(S(=O)(=O)NC(C)(C)C(F)(F)F)cc1C(=O)Nc1ccc(F)c(Cl)c1F [Compound 254, N-(3-chloro-2,4-difluoro-phenyl)-1-methyl-4-[(2,2,2-trifluoro-1,1-dimethyl-ethyl)sulfamoyl]-1H-pyrrole-2-carboxamide]	> 25	50	50
CC(C)NS(=O)(=O)c1cc(C(=O)Nc2ccc(F)c(C#N)c2F)n(C)c1 [Compound 178, N-(3-Cyano-2,4-difluorophenyl)-1-methyl-4-[(1-methylethyl)sulfamoyl]-1H-pyrrole-2-carboxamide]	> 25	90	40
C[C@H](NS(=O)(=O)c1cc(C(=O)Nc2ccc(F)c(Cl)c2F)n(C)c1)C(F)(F)F [Compound 156, N-(3-Chloro-2,4-difluorophenyl)-1-methyl-4-{[(1S)-2,2,2-trifluoro-1-methylethyl]sulfamoyl}-1H-pyrrole-2-carboxamide]	> 25	30	40
CNC(=O)C(C)(C)NS(=O)(=O)c1cc(C(=O)Nc2ccc(F)c(C)c2)n(C)c1 [Compound 62, 4-[[1,1-dimethyl-2-(methylamino)-2-oxo-ethyl]sulfamoyl]-N-(4-fluoro-3-methyl-phenyl)-1-methyl-pyrrole-2-carboxamide]	> 25	140	270
Cn1cc(S(=O)(=O)N[C@H]2CCOC2)cc1C(=O)Nc1cc(F)c(F)c(F)c1 [Compound 26, 1-methyl-[[(3S)-tetrahydrofuran-3-yl]sulfamoyl]-N-(3,4,5-trifluoro-phenyl)pyrrole-2-carboxamide]	> 25	260	140
Cc1c(S(=O)(=O)NC2(C)COC2)cn(C)c1C(=O)Nc1ccc(F)c(F)c1 [Compound 148, N-(3,4-Difluorophenyl)-1,3-dimethyl-4-[(3-methyloxetan-3-yl)sulfamoyl]-1H-pyrrole-2-carboxamide]	> 25	70	110
CC[C@@H](C)NS(=O)(=O)c1cc(C(=O)Nc2ccc(F)c(F)c2)n(C)c1 [Compound 23, N-(3,4-difluorophenyl)-1-methyl-4-[[(1R)-1-methylpropyl]sulfamoyl]pyrrole-2-carboxamide]	> 25	130	20
CC(C)NS(=O)(=O)c1cc(C(=O)Nc2cc(F)c(F)c(Cl)c2)n(C)c1 [Compound 57, N-(3-chloro-4,5-difluoro-phenyl)-4-(isopropylsulfamoyl)-1-methyl-pyrrole-2-carboxamide]	> 25	50	60
Cn1cc(S(=O)(=O)NC2(C)CC2)cc1C(=O)Nc1ccc(F)c(Cl)c1F [Compound 255, N-(3-chloro-2,4-difluoro-phenyl)-1-methyl-4-[(1-methylcyclopropyl)-sulfamoyl]-1H-pyrrole-2-carboxamide]	> 25	100	90
Cn1cc(S(=O)(=O)NC2(C)COC2)cc1C(=O)Nc1cccc(C(F)(F)F)c1 [Compound 28, 1-methyl-4-[(3-methyloxetan-3-yl)sulfamoyl]-N-[3-(trifluoromethyl)-phenyl]pyrrole-2-carboxamide]	> 25	140	100
C[C@@H](NS(=O)(=O)c1cc(C(=O)Nc2ccc(F)c(C(F)(F)F)c2)n(C)c1)C(F)(F)F [Compound 125, N-[4-Fluoro-3-(trifluoromethyl)phenyl]-1-methyl-4-{[(1R)-2,2,2-trifluoro-1-methylethyl]sulfamoyl}-1H-pyrrole-2-carboxamide]	16.7	80	190
C[C@@H](NS(=O)(=O)c1cn(C)c(C(=O)Nc2ccc(F)c(C#N)c2F)c1Cl)C(F)(F)F [Compound 276, 3-chloro-N-(3-cyano-2,4-difluoro-phenyl)-1-methyl-4-[[(1R)-2,2,2-trifluoro-1-methyl-ethyl]sulfamoyl]pyrrole-2-carboxamide]	> 25	10	10
Cn1cc(S(=O)(=O)NC2(C)COC2)c(F)c1C(=O)Nc1ccc(F)c(Br)c1 [Compound 106, N-(3-Bromo-4-fluorophenyl)-3-fluoro-1-methyl-4-[(3-methyloxetan-3-yl)sulfamoyl]-1H-pyrrole-2-carboxamide]	> 25	10	10
Cc1c(S(=O)(=O)N[C@@H](C)C(F)(F)F)cn(C)c1C(=O)Nc1ccc(F)c(C#N)c1 [Compound 151, N-(3-Cyano-4-fluorophenyl)-1,3-dimethyl-4-{[(1S)-2,2,2-trifluoro-1-methylethyl]sulfamoyl}-1H-pyrrole-2-carboxamide]	> 25	70	80
C[C@H](NS(=O)(=O)c1cc(C(=O)Nc2ccc(F)c(C#N)c2)n(C)c1)C(F)(F)F [Compound 102, N-(3-Cyano-4-fluorophenyl)-1-methyl-4-{[(1S)-2,2,2-trifluoro-1-methylethyl]sulfamoyl}-1H-pyrrole-2-carboxamide]	> 25	60	60
Cn1cc(S(=O)(=O)NC2(C)COC2)cc1C(=O)Nc1ccc(F)c(F)c1 [Compound 20, N-(3,4-difluorophenyl)-1-methyl-4-[(3-methyloxetan-3-yl)sulfamoyl]pyrrole-2-carboxamide]	> 25	60	70
Cn1cc(S(=O)(=O)NCC(F)(F)F)cc1C(=O)Nc1cc(F)c(F)c(Cl)c1 [Compound 133, N-(3-Chloro-4,5-difluorophenyl)-1-methyl-4-[(2,2,2-trifluoroethyl)sulfamoyl]-1H-pyrrole-2-carboxamide]	> 25	80	40
Cn1cc(S(=O)(=O)NC2(C)COC2)cc1C(=O)Nc1cc(F)cc(C#N)c1 [Compound 54, N-(3-cyano-5-fluoro-phenyl)-1-methyl-4-[(3-methyloxetan-3-yl)-sulfamoyl]pyrrole-2-carboxamide]	> 25	250	200
Cc1c(S(=O)(=O)N[C@H](C)C(F)(F)F)cc(C(=O)Nc2ccc(F)c(C#N)c2)n1C [Compound 140, N-(3-Cyano-4-fluorophenyl)-1,5-dimethyl-4-{[(1R)-2,2,2-trifluoro-1-methylethyl]sulfamoyl}-1H-pyrrole-2-carboxamide]	> 25	60	100
